The source made the active and inactive calls. For most assays here, no stated cut-off is given here; in the data, actives have a measured Kd and inactives only a lower limit.
Key:
[1] = biological target: T1, Dual specificity mitogen-activated protein kinase kinase 6 (Homo sapiens, UniProt P52564)
T1 sequence (P52564 whole entry): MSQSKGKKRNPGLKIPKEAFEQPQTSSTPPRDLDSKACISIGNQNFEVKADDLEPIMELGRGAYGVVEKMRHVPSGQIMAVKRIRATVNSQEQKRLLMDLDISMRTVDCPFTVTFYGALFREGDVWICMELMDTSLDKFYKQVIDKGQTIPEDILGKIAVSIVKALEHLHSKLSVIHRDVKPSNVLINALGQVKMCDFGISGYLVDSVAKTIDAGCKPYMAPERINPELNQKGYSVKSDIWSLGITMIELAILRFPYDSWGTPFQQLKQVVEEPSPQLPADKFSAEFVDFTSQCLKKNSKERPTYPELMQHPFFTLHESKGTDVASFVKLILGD

[2] = biological target: T2, Ferrochelatase, mitochondrial (Homo sapiens, UniProt P22830)
T2 sequence (P22830 whole entry): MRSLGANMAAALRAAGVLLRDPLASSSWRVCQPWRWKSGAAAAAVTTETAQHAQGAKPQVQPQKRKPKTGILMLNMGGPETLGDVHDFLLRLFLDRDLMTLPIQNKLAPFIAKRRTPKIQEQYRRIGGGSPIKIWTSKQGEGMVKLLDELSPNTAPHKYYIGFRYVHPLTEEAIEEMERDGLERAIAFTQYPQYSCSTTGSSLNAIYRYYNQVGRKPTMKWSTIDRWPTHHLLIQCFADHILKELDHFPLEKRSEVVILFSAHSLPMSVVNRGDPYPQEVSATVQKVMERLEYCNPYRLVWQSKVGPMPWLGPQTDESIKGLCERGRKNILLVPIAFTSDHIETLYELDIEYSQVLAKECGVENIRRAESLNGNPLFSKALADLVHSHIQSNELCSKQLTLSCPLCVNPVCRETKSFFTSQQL

[3] = biological target: T3, Tyrosine--tRNA ligase, cytoplasmic (Homo sapiens, UniProt P54577)
T3 sequence (P54577 whole entry): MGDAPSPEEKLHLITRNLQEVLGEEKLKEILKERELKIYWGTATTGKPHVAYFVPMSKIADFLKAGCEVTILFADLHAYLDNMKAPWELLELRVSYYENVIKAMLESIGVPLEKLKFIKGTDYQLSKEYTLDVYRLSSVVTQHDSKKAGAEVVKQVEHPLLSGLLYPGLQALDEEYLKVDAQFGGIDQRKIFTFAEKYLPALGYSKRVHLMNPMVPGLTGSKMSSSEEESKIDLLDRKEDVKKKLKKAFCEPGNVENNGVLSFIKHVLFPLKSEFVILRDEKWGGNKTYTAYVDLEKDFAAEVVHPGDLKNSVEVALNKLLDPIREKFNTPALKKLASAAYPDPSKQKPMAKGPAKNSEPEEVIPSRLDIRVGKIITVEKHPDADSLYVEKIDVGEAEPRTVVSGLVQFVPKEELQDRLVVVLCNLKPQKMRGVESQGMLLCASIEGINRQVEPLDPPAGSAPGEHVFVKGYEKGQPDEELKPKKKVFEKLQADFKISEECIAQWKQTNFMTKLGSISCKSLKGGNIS

[4] = biological target: T4, Uncharacterized protein FLJ45252 (Homo sapiens, UniProt Q6ZSR9); settings: read-out: Kd apparent; k-562, colo 205, sk-n-be(2) and mv-4-11
T4 sequence (Q6ZSR9 whole entry): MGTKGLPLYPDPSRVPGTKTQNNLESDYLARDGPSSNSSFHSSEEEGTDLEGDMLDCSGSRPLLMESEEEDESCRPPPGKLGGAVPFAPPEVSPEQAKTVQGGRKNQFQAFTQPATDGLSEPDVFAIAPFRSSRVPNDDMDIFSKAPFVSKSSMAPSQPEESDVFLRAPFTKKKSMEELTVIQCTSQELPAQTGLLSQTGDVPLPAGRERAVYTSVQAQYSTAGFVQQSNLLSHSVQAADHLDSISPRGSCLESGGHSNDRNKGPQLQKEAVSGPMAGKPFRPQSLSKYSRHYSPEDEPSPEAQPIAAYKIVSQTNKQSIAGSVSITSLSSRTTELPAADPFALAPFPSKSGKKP

[5] = biological target: T5, Serine/threonine-protein kinase Nek2 (Homo sapiens, UniProt P51955)
T5 sequence (P51955 whole entry): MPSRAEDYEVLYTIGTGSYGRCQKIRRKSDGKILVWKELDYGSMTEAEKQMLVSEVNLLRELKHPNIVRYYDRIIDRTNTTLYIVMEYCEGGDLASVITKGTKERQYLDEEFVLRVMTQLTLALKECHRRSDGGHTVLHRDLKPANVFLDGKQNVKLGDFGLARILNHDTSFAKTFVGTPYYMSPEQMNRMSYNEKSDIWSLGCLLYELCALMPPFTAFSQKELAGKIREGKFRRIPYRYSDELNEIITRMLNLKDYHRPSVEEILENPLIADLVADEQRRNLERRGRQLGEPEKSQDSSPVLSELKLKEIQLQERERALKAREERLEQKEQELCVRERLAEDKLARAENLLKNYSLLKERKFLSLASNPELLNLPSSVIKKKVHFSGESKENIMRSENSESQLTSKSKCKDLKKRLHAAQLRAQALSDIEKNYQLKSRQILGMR

[6] = biological target: T6, AarF domain-containing protein kinase 1 (Homo sapiens, UniProt Q86TW2)
T6 sequence (Q86TW2 whole entry): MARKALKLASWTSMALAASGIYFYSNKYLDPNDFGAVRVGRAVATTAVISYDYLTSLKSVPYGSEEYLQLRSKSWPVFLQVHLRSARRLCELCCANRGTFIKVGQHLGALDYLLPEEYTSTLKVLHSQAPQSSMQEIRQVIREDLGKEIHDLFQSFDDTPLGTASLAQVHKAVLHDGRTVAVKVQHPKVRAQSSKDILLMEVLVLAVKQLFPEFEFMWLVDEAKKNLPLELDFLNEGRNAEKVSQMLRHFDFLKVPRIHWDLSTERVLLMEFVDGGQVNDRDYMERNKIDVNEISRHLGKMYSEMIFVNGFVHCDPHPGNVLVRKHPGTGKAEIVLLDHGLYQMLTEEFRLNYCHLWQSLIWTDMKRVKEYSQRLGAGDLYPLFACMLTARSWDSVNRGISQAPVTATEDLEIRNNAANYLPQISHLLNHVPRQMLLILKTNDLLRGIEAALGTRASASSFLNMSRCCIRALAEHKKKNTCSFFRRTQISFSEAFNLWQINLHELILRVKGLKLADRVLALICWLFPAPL

[7] = biological target: Calcium/calmodulin-dependent protein kinase kinase 2 (Homo sapiens, UniProt Q96RR4)
Calcium/calmodulin-dependent protein kinase kinase 2, sequence (Q96RR4 whole entry): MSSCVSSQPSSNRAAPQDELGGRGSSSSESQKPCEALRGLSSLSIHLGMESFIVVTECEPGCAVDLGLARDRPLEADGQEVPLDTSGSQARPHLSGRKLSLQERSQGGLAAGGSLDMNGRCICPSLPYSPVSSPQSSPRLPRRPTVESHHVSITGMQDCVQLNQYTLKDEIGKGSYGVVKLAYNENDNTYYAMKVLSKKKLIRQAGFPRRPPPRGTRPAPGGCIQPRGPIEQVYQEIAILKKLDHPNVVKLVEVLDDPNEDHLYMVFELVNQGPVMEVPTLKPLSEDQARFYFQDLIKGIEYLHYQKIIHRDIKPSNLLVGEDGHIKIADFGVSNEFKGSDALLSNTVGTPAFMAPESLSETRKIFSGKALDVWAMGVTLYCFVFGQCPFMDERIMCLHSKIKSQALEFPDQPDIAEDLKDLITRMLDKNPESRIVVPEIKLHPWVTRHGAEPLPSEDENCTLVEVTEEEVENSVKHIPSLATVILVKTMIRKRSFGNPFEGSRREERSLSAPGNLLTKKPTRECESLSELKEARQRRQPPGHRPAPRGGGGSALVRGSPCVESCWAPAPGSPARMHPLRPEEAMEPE

[8] = biological target: Proto-oncogene tyrosine-protein kinase Src (Homo sapiens, UniProt P12931)
Proto-oncogene tyrosine-protein kinase Src, sequence (P12931 2-536 limits assumed): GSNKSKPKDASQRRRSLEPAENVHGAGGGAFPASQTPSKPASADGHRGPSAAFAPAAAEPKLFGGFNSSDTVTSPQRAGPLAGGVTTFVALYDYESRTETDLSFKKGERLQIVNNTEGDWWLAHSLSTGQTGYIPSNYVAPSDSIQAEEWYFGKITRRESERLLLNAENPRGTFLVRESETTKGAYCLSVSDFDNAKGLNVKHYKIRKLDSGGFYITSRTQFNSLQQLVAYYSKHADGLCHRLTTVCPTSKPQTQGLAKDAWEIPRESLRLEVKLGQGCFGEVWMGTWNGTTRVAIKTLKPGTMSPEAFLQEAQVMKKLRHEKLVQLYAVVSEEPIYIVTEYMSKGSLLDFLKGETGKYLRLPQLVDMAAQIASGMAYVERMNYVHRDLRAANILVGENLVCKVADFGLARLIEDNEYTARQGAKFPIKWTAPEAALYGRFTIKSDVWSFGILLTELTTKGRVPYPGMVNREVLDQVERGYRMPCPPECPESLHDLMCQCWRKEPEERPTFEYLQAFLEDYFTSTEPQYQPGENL

[9] = biological target: Cyclin-dependent kinase 7 (Homo sapiens, UniProt P50613)
Cyclin-dependent kinase 7, sequence (P50613 whole entry): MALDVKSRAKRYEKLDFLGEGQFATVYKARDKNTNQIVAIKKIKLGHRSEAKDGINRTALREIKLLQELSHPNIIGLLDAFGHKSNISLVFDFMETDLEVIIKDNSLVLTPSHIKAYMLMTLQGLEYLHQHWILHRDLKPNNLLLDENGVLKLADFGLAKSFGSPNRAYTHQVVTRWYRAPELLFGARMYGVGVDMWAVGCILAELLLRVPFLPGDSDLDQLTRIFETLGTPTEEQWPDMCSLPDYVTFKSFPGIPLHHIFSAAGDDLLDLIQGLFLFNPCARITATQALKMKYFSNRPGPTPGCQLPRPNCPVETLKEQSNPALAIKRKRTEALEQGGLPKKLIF

[10] = biological target: Midasin (Homo sapiens, UniProt Q9NU22)

Row | Kd [1] | Kd [2] | Kd [3] | Kd [4] | Kd [5] | Kd [6] | Kd [7] | Kd [8] | Kd [9] | Kd [10] | Structure (SMILES)
1 | > 30 µM (inactive) | > 30 µM (inactive) | > 30 µM (inactive) | > 30 µM (inactive) | > 30 µM (inactive) | > 30 µM (inactive) | > 30 µM (inactive) | > 30 µM (inactive) | > 30 µM (inactive) | > 30 µM (inactive) | O=C(O)[C@]1(Cc2cccc(Nc3nccs3)n2)CC[C@@H](Oc2cccc(Cl)c2F)CC1 [MK-5108]
2 | > 30 µM (inactive) | 67.9 µM (active) | > 30 µM (inactive) | 0.052 µM (active) | > 30 µM (inactive) | 0.033 µM (active) | 7.69 µM (active) | > 30 µM (inactive) | > 30 µM (inactive) | > 30 µM (inactive) | C1=C/COCc2cc(ccc2OCCN2CCCC2)Nc2nccc(n2)-c2cccc(c2)COC/1 [PACRITINIB]
3 | > 30 µM (inactive) | > 30 µM (inactive) | > 30 µM (inactive) | > 30 µM (inactive) | > 30 µM (inactive) | > 30 µM (inactive) | > 30 µM (inactive) | > 30 µM (inactive) | > 30 µM (inactive) | > 30 µM (inactive) | CNC(=O)c1ccc(C)c(-n2c(C)cc(OCc3ccc(F)cc3F)c(Br)c2=O)c1 [PH-797804]
4 | > 30 µM (inactive) | 12.3 µM | > 30 µM (inactive) | 9.31 µM (active) | > 30 µM (inactive) | > 30 µM (inactive) | > 30 µM (inactive) | > 30 µM (inactive) | > 30 µM (inactive) | > 30 µM (inactive) | CN(C)C(=O)c1cc2cnc(Nc3ccc(N4CCNCC4)cn3)nc2n1C1CCCC1 [RIBOCICLIB]
5 | > 30 µM (inactive) | 5.58 µM (active) | > 30 µM (inactive) | > 30 µM (inactive) | > 30 µM (inactive) | > 30 µM (inactive) | > 30 µM (inactive) | > 30 µM (inactive) | > 30 µM (inactive) | > 30 µM (inactive) | COc1cc(OC)c(/C=C/S(=O)(=O)Cc2ccc(OC)c(NCC(=O)O)c2)c(OC)c1 [RIGOSERTIB]
6 | > 30 µM (inactive) | > 30 µM (inactive) | > 30 µM (inactive) | > 30 µM (inactive) | > 30 µM (inactive) | > 30 µM (inactive) | > 30 µM (inactive) | > 30 µM (inactive) | > 30 µM (inactive) | > 30 µM (inactive) | CNC(=O)CN1CCC(Oc2cc3c(Nc4cccc(Cl)c4F)ncnc3cc2OC)CC1 [SAPITINIB]
7 | > 30 µM (inactive) | > 30 µM (inactive) | > 30 µM (inactive) | > 30 µM (inactive) | > 30 µM (inactive) | > 30 µM (inactive) | > 30 µM (inactive) | > 30 µM (inactive) | > 30 µM (inactive) | > 30 µM (inactive) | CN1CCC(CNc2ccc3ncc(-c4cccc(OC(F)(F)F)c4)n3n2)CC1 [SGI-1776]
8 | > 30 µM (inactive) | > 30 µM (inactive) | > 30 µM (inactive) | > 30 µM (inactive) | > 30 µM (inactive) | > 30 µM (inactive) | > 30 µM (inactive) | > 30 µM (inactive) | > 30 µM (inactive) | > 30 µM (inactive) | C[C@@H]1CN(Cc2ccc(F)cc2)[C@@H](C)CN1C(=O)c1cc2c(C(=O)C(=O)N(C)C)cn(C)c2cc1Cl [TALMAPIMOD]
9 | > 30 µM (inactive) | > 30 µM (inactive) | > 30 µM (inactive) | > 30 µM (inactive) | > 30 µM (inactive) | > 30 µM (inactive) | > 30 µM (inactive) | > 30 µM (inactive) | > 30 µM (inactive) | > 30 µM (inactive) | O=c1sn(-c2cccc3ccccc23)c(=O)n1Cc1ccccc1 [TIDEGLUSIB]
10 | > 30 µM (inactive) | > 30 µM (inactive) | > 30 µM (inactive) | > 30 µM (inactive) | > 30 µM (inactive) | > 30 µM (inactive) | > 30 µM (inactive) | > 30 µM (inactive) | > 30 µM (inactive) | > 30 µM (inactive) | CC(=O)Nc1cccc(-n2c(=O)n(C3CC3)c(=O)c3c(Nc4ccc(I)cc4F)n(C)c(=O)c(C)c32)c1 [TRAMETINIB]

Row | Structure (SMILES) | Kd [1] | Kd [2] | Kd [3] | Kd [4] | Kd [5] | Kd [6] | Kd [7] | Kd [8] | Kd [9] | Kd [10]
11 | Cc1ccc(-n2nc(C(C)(C)C)cc2NC(=O)NCc2cc(F)ccc2Oc2ccc3c(cnn3CCO)c2)cc1 [PEXMETINIB] | > 30 µM (inactive) | > 30 µM (inactive) | > 30 µM (inactive) | > 30 µM (inactive) | > 30 µM (inactive) | > 30 µM (inactive) | > 30 µM (inactive) | > 30 µM (inactive) | > 30 µM (inactive) | > 30 µM (inactive)
12 | C=CC(=O)N1CCC(Oc2cc3c(Nc4ccc(Cl)c(Cl)c4F)ncnc3cc2OC)CC1 [POZIOTINIB] | > 30 µM (inactive) | > 30 µM (inactive) | > 30 µM (inactive) | > 30 µM (inactive) | > 30 µM (inactive) | > 30 µM (inactive) | > 30 µM (inactive) | > 30 µM (inactive) | > 30 µM (inactive) | > 30 µM (inactive)
13 | CN1CCC(COc2cnc(-c3cccc(Cn4nc(-c5cccc(C#N)c5)ccc4=O)c3)nc2)CC1 [TEPOTINIB] | > 30 µM (inactive) | > 30 µM (inactive) | > 30 µM (inactive) | > 30 µM (inactive) | > 30 µM (inactive) | > 30 µM (inactive) | > 30 µM (inactive) | > 30 µM (inactive) | > 30 µM (inactive) | > 30 µM (inactive)
